Experimental findings from patent US10351547B2, “Somatostatin modulators and uses thereof” (priority 2016, dated 2019) are described below.

Molecules are shown by their SMILES. Bounds are passed on as bounds.

By EC50 is commonly meant the concentration at which the effect is half-maximal.

For one assay, the target named is human SSTR2 (Homo sapiens (Human), UniProt P30874). The experiment in a line: Human SSTR2 intracellular cAMP functional assay for agonists (HTRF). The assay is classed as cell-based.
Sequence of human SSTR2 (P30874 whole entry): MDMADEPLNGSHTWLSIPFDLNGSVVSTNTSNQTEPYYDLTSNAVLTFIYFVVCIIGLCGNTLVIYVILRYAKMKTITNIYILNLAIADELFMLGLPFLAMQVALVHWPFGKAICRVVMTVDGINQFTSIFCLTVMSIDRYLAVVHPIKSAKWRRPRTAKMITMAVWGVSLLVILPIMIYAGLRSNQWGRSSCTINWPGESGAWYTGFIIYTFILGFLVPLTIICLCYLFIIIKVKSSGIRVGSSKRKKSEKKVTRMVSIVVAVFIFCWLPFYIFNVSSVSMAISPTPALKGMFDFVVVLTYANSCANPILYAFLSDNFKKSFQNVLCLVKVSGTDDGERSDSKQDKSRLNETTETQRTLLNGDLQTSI
Settings: not given
On the procedure: Functional Assay for SSTR2 Agonists
General overview: All five SSTR subtypes are Gi coupled G-protein coupled receptors (GPCRs) that lead to decreases in intracellular cyclic AMP (cAMP) when activated by an agonist. […] Human SSTR2 intracellular cAMP assay is described below. The human SSTR1, 3, 4 and 5 assays follow the same protocol of SSTR2.
The cells are cultured at 37° C., 5% CO2 and 95% humidity. […] The cells are incubated for 20 minutes at 37° C. […] The cells are treated with 50 μL of lysis buffer (HRTF cAMP kit, Cisbio). […] The time-resolved fluorescent signal is read with a Tecan M1000Pro multiplate reader. The intracellular cAMP concentrations are calculated by regression to a standard curve and are plotted vs. the concentration of the compounds of the invention and the EC50 of the compounds are calculated using standard methods. All data manipulations are in GraphPad Prism v6.
A general note: In TR-FRET formats the signal depends on donor and acceptor labels being close together.
Consider `Cc1cc(F)cc(-c2nnc3cc(Cl)c(-c4cccc5[nH]c(=O)[nH]c45)cc3c2N2CCC(N)CC2)c1` [1-9, 4-[4-(4-aminopiperidin-1-yl)-7-chloro-3-(3-fluoro-5-methylphenyl)cinnolin-6-yl]-2,3-dihydro-1H-1,3-benzodiazol-2-one], for which the EC50 is 10 to 100 nM.

Compound `Cc1cc(F)cc(-c2ccc3nnc(-c4cc(F)cc(C(N)=O)c4)c(N4CCC(N)CC4)c3c2)c1` [1-15, 3-[4-(4-aminopiperidin-1-yl)-6-(3-fluoro-5-methylphenyl)cinnolin-3-yl]-5-fluorobenzamide] returned an EC50 of 10 to 100 nM.

In turn, `N#Cc1cccc(-c2ccc3nnc(-c4cc(F)cc(F)c4)c(N4CCC(N)CC4)c3c2)c1O` [1-20, 3-[4-(4-aminopiperidin-1-yl)-3-(3,5-difluorophenyl)cinnolin-6-yl]-2-hydroxybenzonitrile] yielded an EC50 of 10 to 100 nM.

As for `NC1CCN(c2c(-c3cc(Cl)cc(Cl)c3)cnc3ccccc23)CC1` [2-11, 1-[3-(3,5-dichlorophenyl)quinolin-4-yl]piperidin-4-amine], the EC50 was 10 to 100 nM.

For `Cc1cc(F)cc(-c2cnc3ccc(-c4cccc(C#N)c4O)cc3c2N2CC(CN)C2)c1` [2-12, 3-{4-[3-(aminomethyl)azetidin-1-yl]-3-(3-fluoro-5-methylphenyl)quinolin-6-yl}-2-hydroxybenzonitrile], the concentration giving a half-maximal response (EC50) fell in the range of 10 to 100 nM.

The same assay, now with this note: CHO-K1 cells stably expressing human SSTR2; NKH477-stimulated cAMP; read-out: EC50 (inhibition of cAMP activities via human SST2R).
`N#Cc1cccc(-c2cc3c(N4CCC(N)CC4)c(-c4cc(Cl)cc(Cl)c4)nnc3cc2Cl)c1O` [1-11, 3-[4-(4-aminopiperidin-1-yl)-7-chloro-3-(3,5-dichlorophenyl)cinnolin-6-yl]-2-hydroxybenzonitrile]: the concentration for a half-maximal effect (EC50) is under 10 nM.

Turning to `Cc1cc(Cl)cc(-c2nnc3cc(Cl)c(-c4cc(F)cc(C#N)c4O)cc3c2N2CCC(N)CC2)c1` [1-12, 3-[4-(4-aminopiperidin-1-yl)-7-chloro-3-(3-chloro-5-methylphenyl)cinnolin-6-yl]-5-fluoro-2-hydroxybenzonitrile], the EC50 was under 10 nM.

For the compound `Cc1cc(F)cc(-c2nnc3ccc(-c4cc(F)cc(C(N)=O)c4)cc3c2N2CCC(N)CC2)c1` [1-13, 3-[4-(4-aminopiperidin-1-yl)-3-(3-fluoro-5-methylphenyl)cinnolin-6-yl]-5-fluorobenzamide], the EC50 is under 10 nM.

In the case of `NC(=O)c1cc(F)cc(-c2ccc3nnc(-c4cc(F)cc(F)c4)c(N4CCC(N)CC4)c3c2)c1` [1-14, 3-[4-(4-aminopiperidin-1-yl)-3-(3,5-difluorophenyl)cinnolin-6-yl]-5-fluorobenzamide], the EC50 was under 10 nM.

For `Cc1cc(F)cc(-c2nnc3ccc(-c4ccc5[nH]c(=O)[nH]c5c4)cc3c2N2CCC(N)CC2)c1` [1-16, 5-[4-(4-aminopiperidin-1-yl)-3-(3-fluoro-5-methylphenyl)cinnolin-6-yl]-2,3-dihydro-1H-1,3-benzodiazol-2-one], the EC50 was under 10 nM.

`Cc1cc(F)cc(-c2nnc3ccc(-c4cccc(C#N)c4O)cc3c2N2CCC(N)CC2)c1` [1-17, 3-[4-(4-aminopiperidin-1-yl)-3-(3-fluoro-5-methylphenyl)cinnolin-6-yl]-2-hydroxybenzonitrile]: the EC50 is under 10 nM.

Turning to `Cc1cc(Cl)cc(-c2nnc3ccc(-c4cccc(C#N)c4O)cc3c2N2CCC(N)CC2)c1` [1-18, 3-[4-(4-aminopiperidin-1-yl)-3-(3-chloro-5-methylphenyl)cinnolin-6-yl]-2-hydroxybenzonitrile], the EC50 was under 10 nM.

For the compound `N#Cc1cccc(-c2ccc3nnc(-c4cc(F)cc(Cl)c4)c(N4CCC(N)CC4)c3c2)c1O` [1-19, 3-[4-(4-aminopiperidin-1-yl)-3-(3-chloro-5-fluorophenyl)cinnolin-6-yl]-2-hydroxybenzonitrile], the EC50 was under 10 nM.

On to `N#Cc1cccc(-c2ccc3nnc(-c4cc(Cl)cc(Cl)c4)c(N4CCC(N)CC4)c3c2)c1O` [1-21, 3-[4-(4-aminopiperidin-1-yl)-3-(3,5-dichlorophenyl)cinnolin-6-yl]-2-hydroxybenzonitrile], for which the EC50 was under 10 nM.

For `Cc1cc(Cl)cc(-c2nnc3ccc(-c4cc(F)cc(C#N)c4O)cc3c2N2CCC(N)CC2)c1` [1-22, 3-[4-(4-aminopiperidin-1-yl)-3-(3-chloro-5-methylphenyl)cinnolin-6-yl]-5-fluoro-2-hydroxybenzonitrile], the EC50 is under 10 nM.

`Cc1cc(Cl)cc(-c2nnc3ccc(-c4cc(F)c5[nH]c(=O)[nH]c5c4)cc3c2N2CCC(N)CC2)c1` [1-23, 6-[4-(4-aminopiperidin-1-yl)-3-(3-chloro-5-methylphenyl)cinnolin-6-yl]-4-fluoro-2,3-dihydro-1H-1,3-benzodiazol-2-one]: the concentration giving a half-maximal response (EC50) is under 10 nM.

As for `Cc1cc(Cl)cc(-c2nnc3ccc(-c4cc(F)cc5[nH]c(=O)[nH]c45)cc3c2N2CCC(N)CC2)c1` [1-24, 4-[4-(4-aminopiperidin-1-yl)-3-(3-chloro-5-methylphenyl)cinnolin-6-yl]-6-fluoro-2,3-dihydro-1H-1,3-benzodiazol-2-one], the EC50 was under 10 nM.

Consider `Cc1cc(F)cc(-c2nnc3cc(Cl)c(-c4cc(F)cc(C(N)=O)c4)cc3c2N2CCC(NCCF)CC2)c1` [1-25, 3-[7-chloro-3-(3-fluoro-5-methylphenyl)-4-{4-[(2-fluoroethyl)amino]piperidin-1-yl}cinnolin-6-yl]-5-fluorobenzamide], for which the EC50 is under 10 nM.

As to `NC1CCN(c2c(-c3cc(Cl)cc(Cl)c3)nnc3ccc(-c4cc(F)c5[nH]c(=O)[nH]c5c4)cc23)CC1` [1-28, 6-[4-(4-aminopiperidin-1-yl)-3-(3,5-dichlorophenyl)cinnolin-6-yl]-4-fluoro-2,3-dihydro-1H-1,3-benzodiazol-2-one], the EC50 is under 10 nM.

Regarding `Cc1cc(Cl)cc(-c2nnc3ccc(-c4cccc(F)c4O)cc3c2N2CCC(N)CC2)c1` [1-29, 2-[4-(4-aminopiperidin-1-yl)-3-(3-chloro-5-methylphenyl)cinnolin-6-yl]-6-fluorophenol], the EC50 is under 10 nM.

As to `NC(=O)c1cc(F)cc(-c2ccc3nnc(-c4cc(Cl)cc(Cl)c4)c(N4CCC(N)CC4)c3c2)c1` [1-30, 3-[4-(4-aminopiperidin-1-yl)-3-(3,5-dichlorophenyl)cinnolin-6-yl]-5-fluorobenzamide], the EC50 was under 10 nM.

As to `NC(=O)c1cc(F)cc(-c2ccc3nnc(-c4cc(Cl)cc(Cl)c4)c(N4CCC(NC5COC5)CC4)c3c2)c1` [1-31, 3-[3-(3,5-dichlorophenyl)-4-{4-[(oxetan-3-yl)amino]piperidin-1-yl}cinnolin-6-yl]-5-fluorobenzamide], the EC50 was under 10 nM.

As for `NC(=O)c1cc(F)cc(-c2ccc3nnc(-c4cc(Cl)cc(Cl)c4)c(N4CCC(NCCC(F)(F)F)CC4)c3c2)c1` [1-32, 3-[3-(3,5-dichlorophenyl)-4-{4-[(3,3,3-trifluoropropyl)amino]piperidin-1-yl}cinnolin-6-yl]-5-fluorobenzamide], the EC50 is under 10 nM.

`NC(=O)c1cc(F)cc(-c2ccc3nnc(-c4cc(Cl)cc(Cl)c4)c(N4CCC(NCCF)CC4)c3c2)c1` [1-33, 3-[3-(3,5-dichlorophenyl)-4-{4-[(2-fluoroethyl)amino]piperidin-1-yl}cinnolin-6-yl]-5-fluorobenzamide]: the EC50 was under 10 nM.

For the compound `NCC1CN(c2c(-c3cc(Cl)cc(Cl)c3)nnc3ccc(-c4cc(F)cc(C(N)=O)c4)cc23)C1` [1-34, 3-{4-[3-(aminomethyl)azetidin-1-yl]-3-(3,5-dichlorophenyl)cinnolin-6-yl}-5-fluorobenzamide], the 50% effective concentration (EC50) is under 10 nM.

`Cc1cc(F)cc(-c2cnc3ccc(-c4cccc(C#N)c4O)cc3c2N2CCC(N)CC2)c1` [2-1, 3-[4-(4-aminopiperidin-1-yl)-3-(3-fluoro-5-methylphenyl)quinolin-6-yl]-2-hydroxybenzonitrile]: the EC50 is under 10 nM.

In the case of `N#Cc1cccc(-c2ccc3ncc(-c4cc(F)cc(F)c4)c(N4CCC(N)CC4)c3c2)c1O` [2-2, 3-[4-(4-amino-piperidin-1-yl)-3-(3,5-difluoro-phenyl)-quinolin-6-yl]-2-hydroxy-benzonitrile], the EC50 was under 10 nM.

As for `N#Cc1cccc(-c2ccc3ncc(-c4cc(F)cc(F)c4)c(N4CCC(N)CC4)c3c2)c1` [2-5, 3-[4-(4-aminopiperidin-1-yl)-3-(3,5-difluorophenyl)quinolin-6-yl]benzonitrile], the 50% effective concentration (EC50) was under 10 nM.

For the compound `NC1CCN(c2c(-c3cc(F)cc(F)c3)cnc3ccc(-c4ccccc4O)cc23)CC1` [2-6, 2-[4-(4-aminopiperidin-1-yl)-3-(3,5-difluorophenyl)quinolin-6-yl]phenol], the concentration giving a half-maximal response (EC50) was under 10 nM.

For `Cc1cc(F)cc(-c2cnc3ccc(-c4cccc(C(N)=O)n4)cc3c2N2CCC(N)CC2)c1` [2-7, 6-[4-(4-aminopiperidin-1-yl)-3-(3-fluoro-5-methylphenyl)quinolin-6-yl]pyridine-2-carboxamide], the EC50 is under 10 nM.

Take `Cc1cc(F)cc(-c2cnc3ccc(-c4cccc5[nH]c(=O)[nH]c45)cc3c2N2CCC(N)CC2)c1` [2-8, 4-[4-(4-aminopiperidin-1-yl)-3-(3-fluoro-5-methylphenyl)quinolin-6-yl]-2,3-dihydro-1H-1,3-benzodiazol-2-one]: the half-maximal effective concentration (EC50) is under 10 nM.

Regarding `Cc1cc(F)cc(-c2cnc3ccc(-c4ccc5[nH]c(=O)[nH]c5c4)cc3c2N2CCC(N)CC2)c1` [2-9, 5-[4-(4-aminopiperidin-1-yl)-3-(3-fluoro-5-methylphenyl)quinolin-6-yl]-2,3-dihydro-1H-1,3-benzodiazol-2-one], the EC50 was under 10 nM.

Consider `N#Cc1cc(F)cc(-c2ccc3ncc(-c4cc(F)cc(F)c4)c(N4CCC(N)CC4)c3c2)c1O` [2-10, 3-[4-(4-aminopiperidin-1-yl)-3-(3,5-difluorophenyl)quinolin-6-yl]-5-fluoro-2-hydroxybenzonitrile], for which the EC50 was under 10 nM.
